Results as given in the supplement of paper PMC10307832.

Legend:
Assay in all cases: relative viability (nuclei count vs DMSO), 5 days (fraction); higher = more cells survive
[1] = compound: CCN(CCO)CCCC(C)Nc1ccnc2cc(Cl)ccc12 [Hydroxychloroquine] + CC(C)C[C@H](NC(=O)[C@H](Cc1ccccc1)NC(=O)c1cnccn1)B(O)O [Bortezomib] (partner 0.002 µM)
Outline: (§1)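 Lung cancer cell lines were pin-tool dosed in 1536-well plates on the day after seeding, with either a lone drug or a fixed anchor-drug dose plus five library-drug doses (not always all listed) in √10 steps. Nuclei were counted on 4× images after 5 days. Relative viability is the ratio of treated-well to vehicle-well nuclei counts, with each value a median of duplicate plates.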

[2] = compound: CCN(CCO)CCCC(C)Nc1ccnc2cc(Cl)ccc12 [Hydroxychloroquine] + CS(=O)(=O)CCNCc1ccc(-c2ccc3ncnc(Nc4ccc(OCc5cccc(F)c5)c(Cl)c4)c3c2)o1 [Lapatinib] (partner 2 µM)
Outline: as §1

[3] = compound: CCN(CCO)CCCC(C)Nc1ccnc2cc(Cl)ccc12 [Hydroxychloroquine] + NC(=O)Nc1cc(-c2cccc(F)c2)sc1C(=O)N[C@H]1CCCNC1 [AZD7762] (partner 0.2 µM)
Outline: as §1

[4] = compound: CCN(CCO)CCCC(C)Nc1ccnc2cc(Cl)ccc12 [Hydroxychloroquine] + Nc1ncn([C@H]2C[C@H](O)[C@@H](CO)O2)c(=O)n1 [Decitabine] (partner 2 µM)
Outline: as §1

Cell Line | relative viability ([1]; first compound 0.5 µM) | relative viability ([1]; first compound 1.581 µM) | relative viability ([1]; first compound 5 µM) | relative viability ([1]; first compound 15.81 µM) | relative viability ([1]; first compound 50 µM) | relative viability ([2]; first compound 0.5 µM) | relative viability ([2]; first compound 1.581 µM) | relative viability ([2]; first compound 5 µM) | relative viability ([2]; first compound 15.81 µM) | relative viability ([2]; first compound 50 µM) | relative viability ([3]; first compound 0.5 µM) | relative viability ([3]; first compound 1.581 µM) | relative viability ([3]; first compound 5 µM) | relative viability ([3]; first compound 15.81 µM) | relative viability ([3]; first compound 50 µM) | relative viability ([4]; first compound 0.5 µM) | relative viability ([4]; first compound 1.581 µM) | relative viability ([4]; first compound 5 µM) | relative viability ([4]; first compound 15.81 µM) | relative viability ([4]; first compound 50 µM)
201T | 1.07 | 1.09 | 1.1 | 1.07 | 1.11 | 1.05 | 1.02 | 1.02 | 1.02 | 1.05 | 0.571 | 0.809 | 0.759 | 0.59 | 0.658 | 0.858 | 0.834 | 0.852 | 0.864 | 0.844
A549 | – | – | – | – | – | 0.976 | 0.859 | 0.906 | 0.974 | 0.977 | – | – | – | – | – | 0.264 | 0.208 | 0.267 | 0.196 | 0.391
A-427 | 0.956 | 0.946 | 0.982 | 0.961 | 1.06 | 0.996 | 0.955 | 1.07 | 1.01 | 1.09 | 0.727 | 0.802 | 0.769 | 0.696 | 0.671 | 0.539 | 0.551 | 0.585 | 0.509 | 0.479
ABC-1 | 0.263 | 0.271 | 0.277 | 0.297 | 0.235 | 0.987 | 1.09 | 1.13 | 1.43 | 1.23 | 0.754 | 0.917 | 0.797 | 0.995 | 0.711 | 1.15 | 1.1 | 1.09 | 1.35 | 0.906
BEN | 0.693 | 0.802 | 0.977 | 0.824 | 0.949 | 0.704 | 0.553 | 0.609 | 0.707 | 0.891 | 0.795 | 0.652 | 0.767 | 0.776 | 0.759 | 0.764 | 0.649 | 0.64 | 0.75 | 0.636
CAL-12T | 1.11 | – | 0.922 | 0.795 | 0.926 | 0.752 | – | 0.659 | 0.633 | 0.691 | 0.571 | 0.804 | 0.596 | 0.599 | 0.659 | – | – | – | – | –
COR-L23 | 0.89 | 1.17 | 1 | 1.28 | 1.21 | 0.681 | 0.992 | 0.992 | 1.23 | 1.21 | – | – | – | – | – | 0.451 | 0.452 | 0.397 | 0.416 | 0.534
COR-L 105 | 0.879 | 0.664 | 0.694 | 0.737 | 0.891 | 0.369 | 0.37 | 0.346 | 0.318 | 0.327 | – | – | – | – | – | 0.669 | 0.542 | 0.588 | 0.583 | 0.605
Calu-6 | 1 | 1.08 | 0.954 | 1 | 0.922 | 1.05 | 1.18 | 0.991 | 1.02 | 1.01 | – | – | – | – | – | – | – | – | – | –
ChaGo-K-1 | 1.04 | 0.895 | 0.687 | 1.06 | 1.02 | – | – | – | – | – | 0.775 | 0.88 | 0.821 | 0.901 | 0.998 | 0.515 | 0.545 | 0.538 | 0.496 | 0.518
EKVX | 1.26 | 0.925 | 1.04 | 0.916 | 1.09 | 0.246 | 0.181 | 0.224 | 0.168 | 0.199 | 0.549 | 0.772 | 0.753 | 0.653 | 0.759 | 0.346 | 0.308 | 0.334 | 0.407 | 0.372
EMC-BAC-2 | 0.981 | 1.03 | 1.06 | 1.12 | 1.17 | 0.96 | 0.722 | 0.897 | 0.832 | 0.956 | 1.12 | 0.887 | 1.01 | 1.07 | 1.11 | 1.01 | 0.863 | 0.965 | 0.952 | 0.952
EPLC-272H | 0.762 | 0.579 | 0.736 | 0.861 | 1.08 | 0.988 | 0.879 | 0.77 | 0.877 | 1.06 | 0.168 | 0.207 | 0.214 | 0.232 | 0.193 | 0.319 | 0.403 | 0.403 | 0.321 | 0.372
H3255 | 0.835 | 0.743 | 0.722 | 0.68 | 0.702 | 0.272 | 0.243 | 0.205 | 0.248 | 0.202 | 0.857 | 0.897 | 0.875 | 0.882 | 0.891 | 0.612 | 0.536 | 0.593 | 0.718 | 0.592
HARA | 1.1 | 1.19 | 1.02 | 1.13 | 1.06 | 0.712 | 0.731 | 0.597 | 0.765 | 0.635 | 0.263 | 0.373 | 0.405 | 0.219 | 0.376 | 0.492 | 0.539 | 0.524 | 0.534 | 0.519
HCC-15 | 0.951 | 0.918 | 1.08 | 1.09 | 1.2 | 0.847 | 0.812 | 0.873 | 0.867 | 0.836 | 1.29 | 1.15 | 1.11 | 1.35 | 1.49 | 0.674 | 0.648 | 0.627 | 0.666 | 0.702
HCC-44 | 0.875 | 0.865 | 0.883 | 0.914 | 0.955 | 0.989 | 1.07 | 1.08 | 1.06 | 1.04 | 1.07 | 1.04 | 1.08 | 1.06 | 0.975 | 0.966 | 0.978 | 0.974 | 0.939 | 0.914
HCC-78 | 0.425 | 0.482 | 0.525 | 0.519 | 0.568 | 1.29 | 0.706 | 0.492 | 0.746 | 0.764 | 0.595 | 0.754 | 0.605 | 0.661 | 0.641 | 0.655 | 0.638 | 0.651 | 0.676 | 0.73
IA-LM | 0.695 | 0.83 | 0.909 | 0.758 | 1 | 0.863 | 1.09 | 0.862 | 0.869 | 0.795 | – | – | – | – | – | – | – | – | – | –
